Read-outs that look alike come from different tables or passages of the source.
Columns and labels:
Assay type in all cases: cell-based, human
TNFα [1] = assay: TNFα release by PBL, ELISA; conditions: donor GR191; 5 μg/ml PHA, 72 h; Cpd II 15 and 50 μg/ml, Dex 10 μM; FIG. 7
Description: After this incubation, PHA was added to give a final concentration of 5 μg/ml, and the cells were incubated for an additional 72 hours at 37° C., 5% CO2. All cultures were performed in triplicate. Cells were then removed by centrifugation at 1000 rpm for 10 minutes.
The TNFα ELISA was performed as described in Example 2 using matched pair antibodies from Pierce Endogen (2 μg/ml for the coating antibody and 250 ng/ml for the second antibody).

TNFα [2] = assay: TNFα release from LPS-stimulated THP-1 monocytes, ELISA; conditions: THP-1, LPS 200 ng/ml, Cpd II 15 μg/ml, Dex 10 μM
Description: (§1) THP-1 is a monocyte cell line obtained from American Type Culture Collection (ATCC) (catalog no. TIB-202). […] After 1 hour, lipopolysaccharide (LPS) (obtained from Sigma) was added to the cultures to give a final concentration of 200 ng/ml, and the cells were then incubated for an additional 4 hours or for an additional 24 hours. After the incubation, the cells were centrifuged, and the supernatants were collected. The concentrations of IL-8 and TNFα in the supernatants were determined by ELISA.
The TNFα ELISA was performed as described in Example 2.

STAT5b = assay: Custom AntibodyArray, TRiPS cells: STAT5b; conditions: 15 μg/ml, 30 minutes
Description: (§2) Day 18 TRiPS cells, 1×10^6, were incubated for 30 minutes at 37° C., either with nothing added (“Nil”), with 1 μl CD3/CD28 Dynabeads (Dynal, Oslo, Norway) (“CD3/CD28 beads”) per 100,000 cells, or with CD3/CD28 beads and 15 μg/ml of the compound of formula II (Cpd II). After the incubation, the cells were lysed in Cell-Lytic Mammalian Cell Extraction Reagent (Sigma). After centrifugation to pellet cellular debris, the supernatants (cell extracts) were obtained.
(§3) The cell extracts (supernatants) were then analyzed using a Custom AntibodyArray™ manufactured by Hypromatrix Inc., Worcester, Mass., following the manufacturer's instructions. The Custom AntibodyArray™ is a nylon membrane blotted with antibodies to the proteins listed below. Briefly, the cell extracts were incubated with duplicate Custom AntibodyArray™'s for 2 hours at room temperature with slow shaking, followed by three washes with Tris buffer (150 mM NaCl, 25 mM Tris, 0.05% Tween-20, pH 7.5). HRP-labeled antibodies specific for phosphorylated-tyrosine, phosphorylated-serine and phosphorylated-threonine in Tris buffer were added, and the arrays incubated for 2 hours. After three more washes with Tris buffer, a peroxidase-reactive luminescent substrate was added. The arrays were visualized by exposure to X-ray film. Densitometry of the X-ray films was measured by scanning and computer analysis.

STAT6 = assay: Custom AntibodyArray, TRiPS cells: STAT6; conditions: 15 μg/ml, 30 minutes
Description: as §2, §3

IL-8 [3] = assay: IL-8 production by CD3/CD28-stimulated TRiPS T-cell line, ELISA; conditions: 15 μg/ml; CD3/CD28 Dynabeads, 24 hours
IkB-r = assay: Custom AntibodyArray, TRiPS cells: IkB-r; conditions: 15 μg/ml, 30 minutes
Description: as §2, §3

MEKK1 = assay: Custom AntibodyArray, TRiPS cells: MEKK1; conditions: 15 μg/ml, 30 minutes
Description: as §2, §3

IkB-ε = assay: Custom AntibodyArray, TRiPS cells: IkB-ε; conditions: 15 μg/ml, 30 minutes
Description: as §2, §3

IL-7y = assay: Custom AntibodyArray, TRiPS cells: IL-7y; conditions: 15 μg/ml, 30 minutes
Description: as §2, §3

[4] = test system: peripheral blood lymphocytes (PBL); assay: Cell clumping of PHA-stimulated PBL (microscopy); conditions: PBL of donor GR283; 5 μg/ml PHA; compound 5, 15, 50 μg/ml; 24 h pre-incubation + 72 h
Description: Whole blood was drawn from GR283, a human volunteer with known allergies, into a glass vacutainer tube containing no anticoagulant. This blood was allowed to clot, and the serum was removed by centrifugation and then heat inactivated by placing it in a water bath at 56° C. for 30 minutes. Whole blood from GR283 was also drawn into a glass vacutainer tube containing heparin and used for peripheral blood lymphocytes (PBL) isolation as follows. Whole blood was layered over room temperature Histopaque 1077 solution and centrifuged at 2000 rpm for 15 minutes at room temperature. Cells at the plasma-Histopaque interface were then removed and washed with culture medium (IMDM medium with 10% heat-inactivated GR283 serum plus 1% penicillin/streptomycin) at 37° C.
The compound of formula II (see above) and methylphenidate (both obtained from Dr. Jeffrey D. Winkler, University of Pennsylvania, Philadelphia, Pa.) in culture medium were added to wells of a 96-well plate to give final concentrations of 5 μg/ml, 15 μg/ml and 50 μg/ml of the compound of formula II and of methylphenidate. […] Then, GR283's PBL in culture medium were added to the wells to give a final concentration of 150,000 cells per well, and the plates were incubated at 37° C., 5% CO2 for 24 hours. […]

JNK3 = assay: Custom AntibodyArray, TRiPS cells: JNK3; conditions: 15 μg/ml, 30 minutes
Description: as §2, §3

IL-8 [5] = assay: IL-8 release from LPS-stimulated THP-1 monocytes, ELISA; conditions: for inhibition at 15 µg/mL: Homo sapiens, read-out: % Inhibition (IL-8)
Description: as §1
The concentrations of IL-8 in the supernatants were determined by ELISA performed as described in Example 4.

IkB-α = assay: Custom AntibodyArray, TRiPS cells: IkB-α; conditions: 15 μg/ml, 30 minutes
Description: as §2, §3

RAP1 = assay: Custom AntibodyArray, TRiPS cells: RAP1; conditions: 15 μg/ml, 30 minutes
Description: as §2, §3

Structure (SMILES): COC(=O)C(c1ccc(-c2ccccc2)cc1)C1CCCCN1 (centres unmarked) [Cpd II]
- release of TNFα from PHA-stimulated PBL (TNFα [1]): significantly inhibited the release of TNFα
- inhibition at 15 µg/mL (TNFα [2]; Homo sapiens, 24 hours): 53%
- Mean TNFα Concentration (TNFα [2]; 24 hours, LPS alone 138.655): 65.370 ± 0.891 pg/mL
- release of TNFα from LPS-stimulated monocytes (in words) (TNFα [2]): significantly inhibited the release of TNFα
- Effect of Cpd II on the protein in CD3/CD28 stimulated TRiPS cells (STAT5b): Activated
- Effect of Cpd II on the protein in CD3/CD28 stimulated TRiPS cells (STAT6): Slightly decreased the level
- IL-8 production by the TRiPS cell line (IL-8 [3]): no effect on IL-8 production
- Effect of Cpd II on the protein in CD3/CD28 stimulated TRiPS cells (IkB-r): Decreased level back to basal levels (Nil control)
- Effect of Cpd II on the protein in CD3/CD28 stimulated TRiPS cells (MEKK1): Decreased level back to basal levels (Nil control)
- Effect of Cpd II on the protein in CD3/CD28 stimulated TRiPS cells (IkB-ε): Slightly decreased the level
- Effect of Cpd II on the protein in CD3/CD28 stimulated TRiPS cells (IL-7y): Decreased level back to basal levels (Nil control)
- cell clumping induced by PHA [4]: reduced the amount of cell clumping induced by 5 μg/ml PHA in a dose-dependent manner
- Effect of Cpd II on the protein in CD3/CD28 stimulated TRiPS cells (JNK3): Decreased level back to basal levels (Nil control)
- inhibition at 15 µg/mL (IL-8 [5]; THP-1, 4 h): 23%
- inhibition at 15 µg/mL (IL-8 [5]; THP-1, 24 h): 33%
- Mean IL-8 Concentration (IL-8 [5]; THP-1, LPS 200 ng/ml, 4 hours, Cpd II 15 μg/ml, Dex 10 μM, LPS alone 2844.60): 2185.00 ± 78.30 pg/mL
- Mean IL-8 Concentration (IL-8 [5]; THP-1, LPS 200 ng/ml, 24 hours, Cpd II 15 μg/ml, Dex 10 μM, LPS alone 6653.20): 4490.20 ± 264.46 pg/mL
- release of IL-8 from LPS-stimulated monocytes (in words) (IL-8 [5]; THP-1, LPS 200 ng/ml, Cpd II 15 μg/ml, Dex 10 μM): significantly inhibited the release of IL-8
- Effect of Cpd II on the protein in CD3/CD28 stimulated TRiPS cells (IkB-α): Slightly decreased the level
- Effect of Cpd II on the protein in CD3/CD28 stimulated TRiPS cells (RAP1): Activated

— patent publication US20060183773A1, “Uses of methylphenidate derivatives” (priority 2005, published 2006)
